Residues, ends and D or L forms follow the SMILES beside them.
Assays:
[1] = tested on: experimental hemorrhagic pancreonecrosis; test: Enzymatic activity in blood serum in experimental hemorrhagic pancreonecrosis (acute pancreatitis model); type: in vivo, dogs
Method: (§1) The biological activity of the hexapeptide according to the present invention has been studied in experiments on dogs using an experimental acute pancreatitis model.
(§2) To this end, a similar operation was performed on 10 dogs. Under hexenal narcosis upper-median laparotomy was made. Into the wound a loop of duodenum was introduced with pancreas, cannulated and Wirsung's duct was dressed on a drain Snatorini's duct was additionally dressed too. Then the gall-bladder was punctured, bile was extracted therefrom and injected under pressure into Wirsung's duct at the rate of 0.5 ml per kg of the animal's bodyweight. As a stimulant of the pancreas secretion secretin and cholecystopancreoziimin were used which were intravenously administered at the rate of two units per kg of a dog's bodyweight. For administration of the stimulants of the pancreatic secretion, the hexapeptide according to the present invention and obtaining blood, the femoral vein was catheterized. For the measurement of diuresis and urine examination epicystostomy was effected or both ureters were catheterized. All the experiments were carried out on an empty stomach of the animals.
Prior to introduction of bile into Wirsung's duct, background samples of blood, urina and pancreatic juice were taken for special enzymological investigations. After administration of bile into Wirsung's duct the same biological tests were carried out every hour until the experiment was completed. The activity of the following pancreatic enzymes was studied: α-amylase, lipase, total esterase activity, antitryptic activity.
(§3) 30 minutes after the administration of bile into Wirsung's duct and then every 2 hours small pieces of pancreas tissue were taken from the animals from various sections for morphological investigations. In the second series of experiments 5 dogs were used. A hemorrhagic pancreonecrosis was induced in them and 2 hours after the development of acute pancreatitis an intravenous administration of the hexapeptide according to the present invention was started at the rate of 0.3 mg per kg of the animal's bodyweight. For enzymological and morphological studies the same biological samples and pieces of tissues of the pancreas were taken. The dogs were slaughtered 6-8 hours after the beginning of the experiment.
(§4) In the third series of experiments two dogs were used. The induced experimental pancreatitis was treated by means of the hexapeptide according to the present invention. The same tests were performed, but the dogs were not slaughtered. 24 hours from the beginning of the experiment and then 7 days and 15 days thereafter they were subjected to relaparotomy, the macroscopic view of pancreas was studied, pieces of the tissue of pancreas were taken for morphological studies.
(§5) The effect of the hexapeptide according to the present invention was compared with that of widely employed preparations--5-fluorouracyl an d tracilol--on the same model of acute pancreatitis.

[2] = tested on: experimental hemorrhagic pancreonecrosis; test: Morphological studies of the pancreas in experimental hemorrhagic pancreonecrosis; type: in vivo, dogs; conditions: for Morphology of pancreas, early stages of treatment: tracilol 10,000 units per hour, hexapeptide 0.3 mg/kg
Method: as §1, §2
Three dogs were used in the control group of the experiments. They were treated to induce an experimental pancreatitis only without administration of the hexapeptide according to the present invention; an acute experiment lasted for 6-8 hours, whereafter the dogs were slaughtered by intracardiac administration of hexenal.
as §3, §4, §5

[3] = Acute toxicity (LD50); conditions: for LD50: acute toxicity, dose causing death of 50% of the animals; for LD50 surpasses the therapeutic dose by: therapeutic dose: 5-fluorouracyl 5 mg/kg, hexapeptide 0.3 mg/kg
[4] = Effect on cell formula of the blood and immune system; conditions: in vivo
[5] = Solubility of the powder; type: physicochemical
Method: The hexapeptide according to the present invention comprises a white powder, well soluble in distilled water, a physiological solution, ethanol; insoluble in ether, ethylacetate, benzene. The melting temperature is 173°-176° C. [α]D^22 =-19.1 (c 0.33 H2 O).

[6] = dogs, developed pancreonecrosis, hexapeptide 0.3 mg/kg

Structure (SMILES): O=c1[nH]cc(F)c(=O)[nH]1 [5-fluorouracyl, reference compound]
- Total esterase activity in blood serum ([1]; dogs (3), 5-fluorouracyl 5 mg/kg i.v., after 4 hours, value for developed pancreonecrosis 0.58 ± 0.07): 0.56 ± 0.02 μM/ml
- Activity of lipase in blood serum ([1]; dogs (3), 5-fluorouracyl 5 mg/kg i.v., after 4 hours, value for developed pancreonecrosis 0.62 ± 0.12): 0.48 ± 0.02 units
- Antitryptic activity in blood serum ([1]; dogs (3), 5-fluorouracyl 5 mg/kg i.v., after 4 hours, value for developed pancreonecrosis 22.2 ± 1.4): 20.1 ± 1.2 IU
- Activity of alpha-amylase in blood serum ([1]; dogs (3), 5-fluorouracyl 5 mg/kg i.v., after 4 hours, value for developed pancreonecrosis 158.0 ± 18.2): 152.2 ± 24.1 mg/h · ml
- Total esterase activity in blood serum ([1]; dogs (3), 5-fluorouracyl 5 mg/kg i.v., after 6 hours, value for developed pancreonecrosis 0.58 ± 0.07): 0.58 ± 0.04 μM/ml
- Activity of lipase in blood serum ([1]; dogs (3), 5-fluorouracyl 5 mg/kg i.v., after 6 hours, value for developed pancreonecrosis 0.62 ± 0.12): 0.54 ± 0.08 units
- Antitryptic activity in blood serum ([1]; dogs (3), 5-fluorouracyl 5 mg/kg i.v., after 6 hours, value for developed pancreonecrosis 22.2 ± 1.4): 20.1 ± 1.2 IU
- Activity of alpha-amylase in blood serum ([1]; dogs (3), 5-fluorouracyl 5 mg/kg i.v., after 6 hours, value for developed pancreonecrosis 158.0 ± 18.2): 153.3 ± 17.1 mg/h · ml
- Characteristics of activity of enzymes in blood serum (lipase, esterase, antitryptic), in words ([1]; dogs, developed pancreonecrosis, 5-fluorouracyl 5 mg/kg, tracilol 10,000 units/hour): remain substanctially unchanged
- Morphology of pancreas 7 days after the beginning of the treatment ([2]; dogs, 5-fluorouracyl 5 mg/kg): pronounced fibrosis of the pancreas with breaking of lobules into fragments
- Regeneration of the pancreas ([2]; dogs, 5-fluorouracyl 5 mg/kg, later stages of treatment): incomplete
- Morphology of pancreas, early stages of treatment ([2]; dogs, 5-fluorouracyl 5 mg/kg): noticeable inflammatory infiltration of necrotic zones and of the interstice is retained
- LD50 [3]: 750 mg/kg
- LD50 surpasses the therapeutic dose by [3]: 150 times

Structure (SMILES): CC(C)C[C@H](NC(=O)[C@H](Cc1ccccc1)NC(=O)CNC(=O)[C@H](C)NC(=O)[C@@H](N)Cc1ccc(O)cc1)C(=O)N[C@@H](CCCNC(=N)N)C(=O)O [Tyrosyl-alanyl-glycyl-phenylalanyl-leucyl-arginine] (H-YAGFLR-OH)
- Total esterase activity in blood serum ([1]; dogs (7), hexapeptide 0.3 mg/kg i.v., after 4 hours, value for developed pancreonecrosis 0.76 ± 0.05): 0.16 ± 0.08 μM/ml
- Activity of lipase in blood serum ([1]; dogs (7), hexapeptide 0.3 mg/kg i.v., after 4 hours, value for developed pancreonecrosis 1.15 ± 0.03): 0.25 ± 0.02 units
- Antitryptic activity in blood serum ([1]; dogs (7), hexapeptide 0.3 mg/kg i.v., after 4 hours, value for developed pancreonecrosis 26.5 ± 1.3): 78.0 ± 13.1 IU
- Activity of alpha-amylase in blood serum ([1]; dogs (7), hexapeptide 0.3 mg/kg i.v., after 4 hours, value for developed pancreonecrosis 178 ± 28.2): 246.2 ± 26.7 mg/n · ml
- Total esterase activity in blood serum ([1]; dogs (7), hexapeptide 0.3 mg/kg i.v., after 6 hours, value for developed pancreonecrosis 0.76 ± 0.05): 0.20 ± 0.09 μM/ml
- Activity of lipase in blood serum ([1]; dogs (7), hexapeptide 0.3 mg/kg i.v., after 6 hours, value for developed pancreonecrosis 1.15 ± 0.03): 0.40 ± 0.05 units
- Antitryptic activity in blood serum ([1]; dogs (7), hexapeptide 0.3 mg/kg i.v., after 6 hours, value for developed pancreonecrosis 26.5 ± 1.3): 72.0 ± 2.5 IU
- Activity of alpha-amylase in blood serum ([1]; dogs (7), hexapeptide 0.3 mg/kg i.v., after 6 hours, value for developed pancreonecrosis 178 ± 28.2): 258.2 ± 33.2 mg/n · ml
- Activity of lipase in blood serum (in words) [1, 6]: sharply reduced
- Increase of the antitryptic activity (in words) [1, 6]: three-time increase
- Total esterase activity of blood (in words) [1, 6]: lowered
- Synthesis of pancreatic enzymes in acute pancreatitis ([1]; dogs, hexapeptide): effectively inhibits
- Morphology of hemorrhagic pancreonecrosis one day after the treatment ([2]; dogs, hexapeptide i.v.): positive dynamics
- Regeneration of the acinar tissue ([2]; dogs, hexapeptide, 14 days after the beginning of the treatment): complete regeneration of the acinar tissue
- Morphology of pancreas, early stages of treatment ([2]; dogs, 5-fluorouracyl 5 mg/kg): absence of signs of hemorrhagic zones of necrosis and hemorrhages into the interstice
- Antipancreonecrotic activity ([2]; overall conclusion): exhibits an antipancreonecrotic activity
- Cell formula of the blood [4]: does not change the cell formula of the blood
- Pathological responses on the part of the immune system [4]: does not cause pathological responses
- Processes of homeopoiesis [4]: does not inhibit the processes of homeopoiesis
- Solubility ([5]; benzene): insoluble
- Solubility ([5]; distilled water): well soluble
- Solubility ([5]; ethanol): well soluble
- Solubility ([5]; ether): insoluble
- Solubility ([5]; ethylacetate): insoluble
- Solubility ([5]; physiological solution): well soluble
- LD50 [3]: 150 mg/kg
- LD50 surpasses the therapeutic dose by [3]: 500 times

Reference: patent US4695622A, “Hexapeptide” (Vsesojuzny Kardiologichesky Nauchny Tsentr Akademii …, priority 1984, dated 1987)
